Drawing on patent US5622989A, “Amino-benzofuryl-and thienyl-derivatives” (Bayer Aktiengesellschaft, priority 1994, dated 1997), this text covers inhibition and IC50 for two compounds.

The test system of this experiment is human PMN. In words: Inhibition of FMLP-stimulated production of superoxide radical anions. Type of experiment: cell-based. The following applies: Neutrophil, neutrophils stimulated with 4×10^-8 M FMLP; for inhibition at 10 µM: 10 μM compound. How it is done: 1. Preparation of human PMN
Blood was taken from healthy subjects by venous puncture and neutrophils were purified by dextran sedimentation and resuspended in the buffered medium.
2. Inhibition of FMLP-stimulated production of superoxide racidal anions.
Neutrophils (2.5×10^5 ml^-1) were mixed with cytochrome C (1.2 mg/ml) in the wells of a microtitre plate. Compounds according to the invention were added in dimethyl sulphoxide (DMSO). Compound concentration ranged from 2.5 nM to 10 μM, the DMSO concentration was 0.1% v/v in all wells. After addition of cytochalasin b (5 μg×ml^-1) the plate was incubated for 5 min at 37° C. Neutrophils were then stimulated by addition of 4×10^-8 M FMLP and superoxide generation measured as superoxide dismutase inhibitable reduction of cytochrome C by monitoring the OD550 in a Thermomax microtitre plate spectrophotometer. Initial rates were calculated using a Softmax kinetic calculation programme. Blank wells contained 200 units of superoxide dismutase.
The inhibition of superoxide production was calculated as follows: [formula] Rx=Rate of the well containing the compound according to the invention. Ro=Rate in the control well.
Rb=Rate in the superoxide dismutase containing blank well.

In general, inhibition refers to how much of the control response was suppressed. A lower inhibition goes with a weak effect. In general, IC50 refers to the point on the concentration scale where inhibition reaches its midpoint. Regarding `CSc1ccc(C(=O)c2oc3cc(NC(C)=O)ccc3c2CCC(=O)O)cc1` [Example 21], testing at 10 µM gave an inhibition of 90% and the concentration for half-maximal inhibition (IC50) was 0.42 µM.
`COc1cccc(C(=O)c2oc3cc(NC(C)=O)ccc3c2CCC(=O)O)c1` [Example 24] registered an inhibition at 10 µM of 68% and an IC50 of 0.6 µM.
